Experimental data reported in PMC9489682, “Synthesis and comparative evaluation of ^177Lu-labeled PEG and non-PEG variant peptides as HER2-targeting probes” (Scientific Reports, 2022).
Where two headings read alike, the source gives them in different places. Residues, ends and D or L forms follow the SMILES beside them. *: point of attachment. DOTA = O=C(O)CN1CCN(CC(=O)O)CCN(CC(=O)*)CCN(CC(=O)O)CC1; PEG5 = NCCOCCOCCOCCOCCOCCC(=O)O

Columns and labels:
[1] = Water solubility (remarks); assay type: physicochemical; settings: authors' remark on the non-pegylated peptide
HER2 = molecular target: T1, HER2 (Homo sapiens, UniProt P04626); assay: Saturation radioligand binding assay in SKBR3 cells; settings: HER2 over expressing SKBR3 cells, 1 × 10^6 cells/well, 4–200 nM radiopeptide, 37 °C, 60 min, non-specific binding with unlabeled DOTA-A9, nonlinear regression, read-out: Binding affinity Kd
T1 construct: endogenous in cells; host or cells: SKBR3 human breast carcinoma cells
T1 sequence (P04626 23-1255): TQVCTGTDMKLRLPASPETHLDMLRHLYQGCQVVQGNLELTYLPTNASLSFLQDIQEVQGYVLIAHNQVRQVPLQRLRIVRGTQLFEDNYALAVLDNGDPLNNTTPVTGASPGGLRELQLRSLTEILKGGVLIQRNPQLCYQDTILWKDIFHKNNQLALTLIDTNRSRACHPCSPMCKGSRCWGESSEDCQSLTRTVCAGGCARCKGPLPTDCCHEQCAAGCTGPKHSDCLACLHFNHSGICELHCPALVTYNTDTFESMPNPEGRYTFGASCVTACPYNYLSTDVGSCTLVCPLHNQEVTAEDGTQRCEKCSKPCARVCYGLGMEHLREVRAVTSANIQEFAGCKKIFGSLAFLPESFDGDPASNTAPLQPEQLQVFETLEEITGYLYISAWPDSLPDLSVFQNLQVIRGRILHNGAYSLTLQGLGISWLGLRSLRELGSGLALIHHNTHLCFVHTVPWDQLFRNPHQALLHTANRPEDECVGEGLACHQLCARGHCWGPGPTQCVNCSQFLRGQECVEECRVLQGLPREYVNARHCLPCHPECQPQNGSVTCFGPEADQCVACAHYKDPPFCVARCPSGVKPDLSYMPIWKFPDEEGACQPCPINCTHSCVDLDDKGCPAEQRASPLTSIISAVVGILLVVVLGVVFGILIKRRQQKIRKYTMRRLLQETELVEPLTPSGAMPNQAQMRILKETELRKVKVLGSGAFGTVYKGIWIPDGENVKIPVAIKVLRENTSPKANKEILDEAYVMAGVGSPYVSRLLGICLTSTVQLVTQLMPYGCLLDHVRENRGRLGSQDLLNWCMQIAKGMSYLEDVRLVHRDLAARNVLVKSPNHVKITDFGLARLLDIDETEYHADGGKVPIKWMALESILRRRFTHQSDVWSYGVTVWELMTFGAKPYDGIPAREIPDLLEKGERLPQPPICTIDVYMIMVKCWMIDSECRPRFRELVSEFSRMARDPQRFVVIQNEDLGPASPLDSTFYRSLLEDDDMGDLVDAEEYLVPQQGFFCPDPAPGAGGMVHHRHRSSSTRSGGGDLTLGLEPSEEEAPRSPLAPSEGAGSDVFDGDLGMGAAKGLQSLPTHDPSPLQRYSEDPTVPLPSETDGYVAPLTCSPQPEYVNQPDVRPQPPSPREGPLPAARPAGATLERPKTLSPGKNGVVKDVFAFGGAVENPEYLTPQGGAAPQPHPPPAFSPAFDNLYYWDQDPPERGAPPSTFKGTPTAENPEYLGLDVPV
Experimental: The binding affinity of [^177Lu]DOTA-A9 and [^177Lu]DOTA-PEG4-A9 was determined by the saturation radioligand binding assay in HER2 over expressing SKBR3 cells. 1 × 10^6 cells/well were seeded in cell culture plates and incubated at 37 °C. Cells were treated with series of increasing concentration of the radiolabeled peptide (4–200 nM) and incubated at 37 °C for 60 min. For obtaining non-specific binding, cells were co-incubated with radiolabeled formulations along with unlabeled DOTA-A9 peptide. On completion of incubation, cells were washed with the ice-cold phosphate buffer saline (PBS). Cells with bound radioactivity were harvested with 1 N NaOH (1 mL) solution (at 37 °C for 3 min) and counted in a gamma counter. Kd value was calculated by the nonlinear regression algorithm (GraphPad Prism version 7.0). The Bmax value (nM) was converted to the number of HER2 receptors per cell.

Human serum stability = assay type: in vitro ADME; settings: human serum 500 μL, pH 7.4, 37 °C, 6 h, 25 µL (3.7 MBq) radiopeptide, acetonitrile precipitation, RP-HPLC radiochromatogram
Experimental: For serum stability studies blood was allowed to clot (1 h) followed by centrifugation (2300×g, 10 min). Measurements were performed by incubation of radiopeptides (25 µL, 3.7 MBq) with human serum (500 μL, pH 7.4) at 37 °C. After 6 h incubation acetonitrile (500 μL) was added to the sample for protein precipitation. Subsequently the sample was centrifuged, supernatant was collected and radiochemical purity was analyzed by RP-HPLC.

[2] = Biodistribution in SKBR3 tumor bearing SCID mice; assay type: in vivo; settings: female, mouse, iv, 0.5 ug, total radioactivity, mean ± SD; for tissue to tissue ratio at 3 h: 3 h p.i.; for tissue to tissue ratio at 3 h / tissue to tissue ratio at 24 h / tissue to tissue ratio at 48 h: i.v. tail vein, 0.5 μg, 3.7 MBq; for tissue to tissue ratio at 24 h: 24 h p.i.; for tissue to tissue ratio at 48 h: 48 h p.i.
Experimental: Biodistribution studies of peptide tracers, [^177Lu]DOTA-A9 and [^177Lu]DOTA-PEG4-A9 were carried out in female SCID mice bearing human breast carcinoma, SKBR3 tumor xenografts. Tumor bearing mice (n = 3) were intravenously injected with peptide tracers (0.5 μg, 150 μL, 3.7 MBq) into the tail vein. Animals were sacrificed and dissected at 3 h, 24 h and 48 h post injection (p.i.). The radioactivity associated with each tissue was counted in a NaI (Tl) flat geometry detector and expressed as percentage injected dose per gram of tissue [% ID/g, mean ± standard deviation, n = 3/radiotracer].
Statistical analysis using the […] two-tailed Student’s t-test was performed to compare uptake values in tumor and major organs between [^177Lu]DOTA-A9 and [^177Lu]DOTA-PEG4-A9 animal groups; values of p < 0.05 were considered statistically significant.

MDA-MB-435 tumors = settings: in vivo; cited from earlier work
Experimental: Besides A9 peptide other HER2-targeting peptides have been explored and investigated. […] However, the tumor uptake reduced to 0.10 ± 0.02% ID/g at 24 h p.i. which is much lower than the values of presently studied radiopeptides. […] Tumor-to muscle ra ...

U-87 MG tumors = settings: in vivo; cited from earlier work
Experimental: Several Tc-99m-labeled peptides targeting HER2 receptors have also been studied. The high uptake of [^99mTc]HYNIC-(Ser)3-LTVPWY in U-87 MG tumors (2.08 ± 0.07% ID/g) at 1 h p.i. dropped to 0.04 ± 0.03% ID/g at 4 h p.i. […] Tumor-to-blood, tumor-to-muscle and tumor-to-kidney ratios reported were much lower for [^99mTc]CGGG-LTVSPWY and [^99mTc]CSSS-LTVSPWY compared to the current radiopeptides.

[3] = tumor / blood, n = 3, read-out: Tumor-to-blood ratio
[4] = tumor / muscle, n = 3, read-out: Tumor-to-muscle ratio

CC(C)[C@H](NC(=O)[C@H](C)NC(=O)[C@@H](NC(=O)[C@H](CC(N)=O)NC(=O)[C@@H](NC(=O)[C@H](CC(=O)O)NC(=O)[C@H](CCC(N)=O)NC(=O)CN1CCN(CC(=O)O)CCN(CC(=O)O)CCN(CC(=O)O)CC1)C(C)C)[C@@H](C)O)C(=O)N[C@@H](C)C(=O)N[C@@H](Cc1c[nH]c2ccccc12)C(N)=O ({DOTA}-QDVNTAVAW-NH2)
intact radiopeptide after 6 h in human serum: > 95%

CC(C)[C@H](NC(=O)[C@H](C)NC(=O)[C@@H](NC(=O)[C@H](CC(N)=O)NC(=O)[C@@H](NC(=O)[C@H](CC(=O)O)NC(=O)[C@H](CCC(N)=O)NC(=O)CN1CCN(CC(=O)O)CCN(CC(=O)O)CCN(CC(=O)O)CC1)C(C)C)[C@@H](C)O)C(=O)N[C@@H](C)C(=O)N[C@@H](Cc1c[nH]c2ccccc12)C(N)=O [DOTA-A9] ({DOTA}-QDVNTAVAW-NH2)
Solubility [1]: no solubility issues

CC(C)[C@H](NC(=O)[C@H](C)NC(=O)[C@@H](NC(=O)[C@H](CC(N)=O)NC(=O)[C@@H](NC(=O)[C@H](CC(=O)O)NC(=O)[C@H](CCC(N)=O)NC(=O)CN1CCN(CC(=O)O)CCN(CC(=O)O)CCN(CC(=O)O)CC1)C(C)C)[C@@H](C)O)C(=O)N[C@@H](C)C(=O)N[C@@H](Cc1c[nH]c2ccccc12)C(N)=O [[^177Lu]DOTA-A9, metal not drawn] ({DOTA}-QDVNTAVAW-NH2)
Kd (HER2): 48.4 ± 1.37 nM | Degradation on incubation with human serum (radio-HPLC) (Human serum stability): no degradation | tissue to tissue ratio at 3 h [2, 3]: 3.4 ± 0.49 | tissue to tissue ratio at 24 h [2, 3]: 7.42 ± 1.11 | tissue to tissue ratio at 3 h [2, 4]: 8.42 ± 0.04 | tissue to tissue ratio at 24 h [2, 4]: 8.09 ± 2.21 | tissue to tissue ratio at 48 h [2, 4]: 10 ± 1.57

CC(C)[C@H](NC(=O)[C@H](C)NC(=O)[C@@H](NC(=O)[C@H](CC(N)=O)NC(=O)[C@@H](NC(=O)[C@H](CC(=O)O)NC(=O)[C@H](CCC(N)=O)NC(=O)CCOCCOCCOCCOCCOCCNC(=O)CN1CCN(CC(=O)O)CCN(CC(=O)O)CCN(CC(=O)O)CC1)C(C)C)[C@@H](C)O)C(=O)N[C@@H](C)C(=O)N[C@@H](Cc1c[nH]c2ccccc12)C(N)=O [[^177Lu]DOTA-PEG4-A9, metal not drawn] ({DOTA-PEG5}-QDVNTAVAW-NH2)
Kd (HER2): 55.7 ± 12.3 nM | Degradation on incubation with human serum (radio-HPLC) (Human serum stability): no change in radiochromatogram | tissue uptake at 3 h ([2]; SKBR3 tumor, maximum observed at 3 h p.i., n = 3): 2.04 ± 0.22 %ID/g | tissue to tissue ratio at 3 h [2, 3]: 3.85 ± 0.02 | tissue to tissue ratio at 24 h [2, 3]: 8.87 ± 1.51 | tissue to tissue ratio at 48 h [2, 3]: 15 ± 1.42 | tissue to tissue ratio at 3 h [2, 4]: 15.7 ± 2.06 | tissue to tissue ratio at 24 h [2, 4]: 13.3 ± 0.03 | tissue to tissue ratio at 48 h [2, 4]: 30 ± 2.83 | intact radiopeptide after 6 h in human serum: > 95%

DOTA(GSG)-KCCYSL [[^111In]DOTA(GSG)-KCCYSL, In-111 labeled HER2-targeting KCCYSL peptide]
Maximum tumor uptake (MDA-MB-435 tumors): 2.12 ± 0.32 % ID/g | Tumor-to-blood ratio (MDA-MB-435 tumors): 10:1 | Tumor-to-muscle ratio (MDA-MB-435 tumors): 0.5:1

HYNIC-(Ser)3-LTVPWY [[^99mTc]HYNIC-(Ser)3-LTVPWY, Tc-99m-labeled peptide targeting HER2 receptors]
Tumor-to-blood ratio (U-87 MG tumors): 3.39 | Tumor-to-kidney ratio (U-87 MG tumors): 0.24 | Tumor-to-muscle ratio (U-87 MG tumors): 3.98
